# Reference: US20180193336A1, “SPRAY DRY FORMULATIONS” (Pulmokine, Inc., priority 2013, published 2018)
# “And” between values parts separate entries of the source, which are not always exact repeats. Equal entries are not always repeated.
# How the values were obtained:
# PDGFRbeta = PDGFRbeta (Homo sapiens, UniProt P09619); conditions: FIG. 25
# Description: A Z-lyte kinase assay was performed to determine the inhibition of PDGFRalpha and PDGFRbeta mediated phosphorylation by PK10453 (Structure 2). Ten point titration curves were modeled to calculate the IC50 (Invitrogen Select Screen®).
# rat MCT+PN model = experiment: RV pressure, PV loops and RV hypertrophy in rat MCT+PN model; format: in vivo; conditions: for RV systolic pressure: 14 days
# Description: In a separate cohort of animals, the MCT+PN model was developed as described above, and PK10453 (Structure 2) was then administered for 4 or 8 min three times a day to the drug treated group. The vehicle control group underwent 4 min exposures three times a day. Pressure Volume (PV) loops were obtained with an admittance system (Scisense, Inc.) after 14 days of treatment, while rats were under general anesthesia with isoflurane and 100% FiO2. Also, or in the alternative, RV pressures were obtained in each group after 14 days of treatment. In a subset of each group, pressure Volume (PV) loops were obtained with an admittance system (high fidelity catheter FTE1918B, Scisense, Inc.) after 14 days of treatment. After induction of general anesthesia and intubation via tracheostomy, the rats were placed on a pressure controlled ventilator (TOPOVENT). General anesthesia consisted of isoflurane and 100% F1O2 with peak inspiratory pressure set at 18 cm, and PEEP 5 cm H2O. A left thoracotomy was performed with admittance catheter in the RV via the RV outflow tract.
# At the end of the study, the heart and lungs were removed from ventilated animals under general anesthesia. Heparinized saline was infused under pressure through the main pulmonary artery. The right upper lobe was immediately tied off and placed in liquid nitrogen for Western blot and NanoPro 100 assay analysis. The heart was removed, and the RV free wall, interventricular septum and LV free wall dissected and weighed. Buffered formalin (10%) was infused under pressure both through the pulmonary artery and the trachea. Morphometric analysis was performed on H&E stained formalin fixed tissue sectioned at 8 μm. The media area and lumen area of pulmonary arterioles were measured with Image J software by a technician blinded to treatment group. Measurements were made on 20 pulmonary arterioles per section. The ratio of the lumen area to the total media area was determined. This ratio normalizes the variation in total pulmonary arteriole area. In addition, occlusive analysis was performed in the monocrotaline plus pneumonectomy study (specifically efficacy study 5) according to the method of Homma et al., “Involvement of RhoA/Rho kinase signaling in protection against monocrotaline-induced pulmonary hypertension in pneumonectomized rats by dehydroepiandrosterone.” Am J Physiol Lung Cell Mol Physiol. Vol. 295:L71-8 (2008). Briefly, pre-capillary arterioles were assigned grade 0 for no evidence of neointimal lesions, grade 1 for less than 50% luminal occlusion, and grade 2 for greater than 50% occlusion. Masson Trichrome stains were performed on lung sections from the MCT+PN model. […]
# PDGFRbeta, sequence (P09619 600-962 limits assumed): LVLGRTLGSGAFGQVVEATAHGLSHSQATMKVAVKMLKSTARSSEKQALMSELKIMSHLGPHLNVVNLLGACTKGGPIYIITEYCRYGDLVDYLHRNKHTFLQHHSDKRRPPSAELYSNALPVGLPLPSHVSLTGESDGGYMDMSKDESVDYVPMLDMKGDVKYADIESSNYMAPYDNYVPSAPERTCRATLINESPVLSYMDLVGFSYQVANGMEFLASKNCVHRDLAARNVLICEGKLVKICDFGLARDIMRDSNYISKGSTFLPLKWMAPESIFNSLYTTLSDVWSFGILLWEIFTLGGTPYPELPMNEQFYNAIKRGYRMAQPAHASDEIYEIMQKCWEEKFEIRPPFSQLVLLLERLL
compound,measurement,setting,value
"COc1cc(-c2cncc(N[C@@H](C)c3cccc(NC(=O)c4cncc(C)c4)c3)n2)ccc1O [PK10453, (S)—N-(3-(1-((6-(4-hydroxy-β-methoxyphenyl)pyrazin-2yl)amino)ethyl)phenyl)-5-methylnicotinamide]",potency against PDGFR beta kinase domain relative to imatinib,PDGFRbeta,more potent than imatinib
same,(RV+IVS)/LV ratio,rat MCT+PN model; D4,0.62±0.04
same,RV systolic pressure,"rat MCT+PN model; D4, 4 min three times a day",40.4±2.7 mm Hg and 40.4+2.7 mm Hg
same,(RV+IVS)/LV ratio,rat MCT+PN model; D8,0.68±0.05
same,RV systolic pressure,"rat MCT+PN model; D8, 8 min three times a day",43±3.0 mm Hg and 43.0+3.0 mm Hg
